These results are taken from patent EP4650362A1, “NEUROPROTECTIVE PSD-95 POLYPEPTIDE INHIBITOR AND USE THEREOF” (Beijing Tuo Jie Biopharmaceutical Co. Ltd., priority 2023, dated 2024).

pEC50: −log10 of the molar value. Where two headings read alike, the source gives them in different places. Non-standard residues stand in square brackets, D forms with d. Residues, ends and D or L forms follow the SMILES beside them. No end group written: not given here. Tle = CC(C)(C)[C@H](N)C(=O)O; Dab = NCC[C@H](N)C(=O)O; Aib = CC(C)(N)C(=O)O

Series [1] in a line: plasma stability test, rat plasma. It is filed as in vitro ADME. The protocol:
(§1) Solution preparation: An appropriate amount of a test polypeptide compound was weighed out and dissolved in an appropriate amount of 1× PBS to form a 1 mM test solution. NA-1 and NoNO42 were used as positive drugs, propantheline bromide was used as a human plasma test control, and lovastatin was used as a rat plasma test control. Plasma stability test: 12.5 µL of the 1 mM test solution was added to a 495 µL pre-incubated plasma sample. […] For each incubation time, two parallel samples were set. Subsequently, 200 µL of stop solution was added to stop the incubation, and the mixtures were vortexed for 5 min. Then the mixtures were centrifuged at 10,000 rpm at 4 °C for 10 min to remove the protein in the sample, and 70 µL of the supernatant was transferred to a new 96-well plate (70 µL of water was added to each well beforehand) and well mixed. […] Sample pretreatment: […] LC-MS analysis: […] (2) Mass-spectrometric conditions: The mass spectrometry analysis used an electrospray ionization (ESI) source, a positive ion analysis mode, and a multi-reaction monitoring (MRM) scan mode. […] The plasma stability of the polypeptide compound

A further series has as its target T1, human PSD95-PDZ2 (Homo sapiens, UniProt P78352).
T1 construct: PDZ2 (155-249, the Flag-His-Avitag-TEVsite tag is italicized); made in house; host or cells: E. coli BL21-DE3 (PET vector)
The series can be described thus: binding ELISA with Biotin-PDZ2. An excerpt: The three PDZ domains in the PSD95 protein are structurally similar. Binding to the PDZ1 and PDZ2 domains can effectively block PSD95-mediated neuroexcitotoxicity. However, the biological function of binding to the PDZ3 domain is unclear. Therefore, to avoid potential safety concerns, this test example assessed the selectivity of polypeptide compounds for the PDZ2 and PDZ3 domains, aiming to identify polypeptide compounds that specifically bind to the PDZ2 domain. Site-specifically biotinylated Biotin-PDZ2 and Biotin-PDZ3 proteins were used for binding ELISA assays. […] After the blocking was complete, the blocking solution was discarded, and the plate was washed three times with PBST buffer. […] After the incubation was complete, the reaction solutions in the microplate were discarded, and the plate was washed three times with PBST. 100 µL of HRP-SA secondary antibody (diluted at 1:2000) was added to each well, and the plate was incubated at 37 °C for 1 h. After the plate was washed three times with PBST, 100 µL of TMB chromogenic substrate was added. […] The absorbance at 450 nm was measured using a SpectraMax M5 microplate reader, and the binding EC50 values of the test compounds to Biotin-PDZ2 or Biotin-PDZ3 were calculated using GraphPad Prism 9. […] The abilities of polypeptide compounds to bind to human PSD95-PDZ2 and human PSD95-PDZ3
On the technique in general: In an ELISA, binding on a coated surface is turned into a signal by an enzyme label.

Series [2] is described as follows: plasma stability test with alteplase added, human plasma. It is filed as in vitro ADME. The following applies: Human plasma + rt-PA (50 µg/mL alteplase), 25 µM. As for the experimental part: as §1, with “mixed. Plasma stability test with alteplase added: An appropriate amount of solid alteplase was weighed out, and an appropriate volume of water was added. The mixture was vortexed to dissolve alteplase, forming a 1 mg/mL solution of alteplase. 250 µL of the 1 mg/mL solution of alteplase was added to 4750 µL of plasma to form a plasma sample containing 50 µg/mL alteplase. The other procedures were the same as in the aforementioned "plasma stability test", with the difference being that the plasma sample containing 50 µg/mL alteplase was used instead of plasma.” for “mixed.”

Setting [3] is: Rat plasma, 25 µM, 0min (standard 100%).
[4] abbreviates: Rat plasma, 25 µM, 10min, read-out: Relative remaining compound content (%).
[5] abbreviates: Rat plasma, 25 µM, 20min, read-out: Relative remaining compound content (%).
[6] abbreviates: Rat plasma, 25 µM, 30min, read-out: Relative remaining compound content (%).
Setting [7] is: Rat plasma, 25 µM, 60min, read-out: Relative remaining compound content (%).

T1 sequence (P78352 155-249): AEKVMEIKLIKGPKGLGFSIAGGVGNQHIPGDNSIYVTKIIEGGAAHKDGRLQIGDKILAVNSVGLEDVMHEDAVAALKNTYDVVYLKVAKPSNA

As usually defined, the pEC50 is the negative decadic logarithm of the EC50, by convention in mol/L. `CC[C@H](C)[C@H](NC(=O)[C@H](CO)NC(=O)[C@H](CO)NC(=O)[C@H](CC(C)C)NC(=O)[C@@H](CCCCN)NC(=O)[C@H](CCCNC(=N)N)NC(=O)[C@H](CCCNC(=N)N)NC(=O)[C@@H](CCCNC(=N)N)NC(=O)[C@H](CCC(N)=O)NC(=O)[C@@H](CCCNC(=N)N)NC(=O)[C@H](CCCNC(=N)N)NC(=O)[C@H](CCCCN)NC(=O)[C@H](CCCCN)NC(=O)[C@@H](CCCNC(=N)N)NC(=O)CNC(=O)[C@@H](N)Cc1ccc(O)cc1)C(=O)N[C@@H](CCC(=O)O)C(=O)N[C@@H](CO)C(=O)N[C@@H](CC(=O)O)C(=O)N[C@H](C(=O)O)C(C)C` [NoNO42, YGrKKRrQrRRkLSSIESDV, reference compound] (H-YG[dR]KKR[dR]Q[dR]RR[dK]LSSIESDV-OH): in series [1] (rat, plasma), the fraction remaining at 10 min, 25 µM turned out to be 98.4%; the amount remaining at 20 min, 25 µM was determined as 93.6%; the amount remaining at 0.5 h, 25 µM stood at 93.6%; the fraction remaining at 1 h, 25 µM came out at 90.8%. Also, in series [1] (rat, plasma), the amount remaining at 2 h, 25 µM was determined as 95%. The same compound gave a negative logarithm of the EC50 (pEC50) at human PSD95-PDZ2 of 7.01.

Take `CC(C)[C@H](NC(=O)[C@H](CC(=O)O)NC(=O)[C@@H](NC(=O)[C@@H](NC(=O)[C@@H](NC(=O)[C@@H](NC(=O)[C@H](CCN)NC(=O)C(C)(C)NC(=O)CNC(=O)[C@@H](CCCNC(=N)N)NC(=O)[C@@H](CCCNC(=N)N)NC(=O)[C@@H](CCCNC(=N)N)NC(=O)[C@@H](CCC(N)=O)NC(=O)[C@@H](CCCNC(=N)N)NC(=O)[C@@H](CCCNC(=N)N)NC(=O)[C@@H](CCCCN)NC(=O)[C@@H](CCCCN)NC(=O)[C@@H](CCCNC(=N)N)NC(=O)CNC(=O)[C@H](N)Cc1ccc(O)cc1)[C@@H](C)O)C(C)(C)C)C(C)(C)C)[C@@H](C)O)C(=O)O` [Polypeptide compound 14, y-G-r-k-k-r-r-q-r-r-r-G-Aib-Dab-T-Tle-Tle-T-D-V] (H-[dY]G[dR][dK][dK][dR][dR][dQ][dR][dR][dR]G[Aib][Dab]T[Tle][Tle]TDV-OH): the “Relative remaining compound content (%)” value is reported as 100.0% in series [1] (setting [3]); 100.0% in series [2] (0min (standard 100%)); 98.6% in series [2] (10min); 89.8% in series [2] (20min); 85.8% in series [2] (30min); 91.2% in series [2] (60min). The “Relative remaining compound content (%)” value in series [2] (120min) is listed as 92.3%. The share remaining at 10 min, 25 µM in series [1] (setting [4]) was found to be 105%. The fraction remaining at 20 min, 25 µM in series [1] (setting [5]) turned out to be 117%. Besides, the share remaining at 0.5 h, 25 µM in series [1] (setting [6]) was determined as 107%. Besides, in series [1] (setting [7]), the amount remaining at 1 h, 25 µM worked out at 109%. Moreover, in series [1] (Rat plasma, 25 µM, 120min, read-out: Relative remaining compound content (%)), the share remaining at 2 h, 25 µM is 104%. Moreover, the pEC50 at human PSD95-PDZ2 (plate coated with 2 µM test compound, Biotin-PDZ2 titrated, read-out: EC50 (PDZ2)) was 7.12.

Take `CC(C)[C@H](NC(=O)[C@H](CC(=O)O)NC(=O)[C@@H](NC(=O)[C@@H](NC(=O)[C@@H](NC(=O)[C@@H](NC(=O)[C@H](CCN)NC(=O)C(C)(C)NC(=O)CNC(=O)[C@@H](CCCNC(=N)N)NC(=O)[C@H](CCCNC(=N)N)NC(=O)[C@H](CCCNC(=N)N)NC(=O)[C@H](CCC(N)=O)NC(=O)[C@@H](CCCNC(=N)N)NC(=O)[C@H](CCCNC(=N)N)NC(=O)[C@H](CCCCN)NC(=O)[C@H](CCCCN)NC(=O)[C@H](N)CCCNC(=N)N)[C@@H](C)O)C(C)(C)C)C(C)(C)C)[C@@H](C)O)C(=O)O` [Polypeptide compound 22, r-K-K-R-r-Q-R-R-r-G-Aib-Dab-T-Tle-Tle-T-D-V] (H-[dR]KKR[dR]QRR[dR]G[Aib][Dab]T[Tle][Tle]TDV-OH): the “Relative remaining compound content (%)” value in series [1] (setting [3]) turned out to be 100.0%; in series [1] (Rat plasma, 25 µM, 120min), 124.8%; in series [2] (0min (standard 100%)) it was 100.0%; in series [2] (10min), 97.9%; in series [2] (20min), 95.8%; in series [2] (30min), 102.8%. Further, the “Relative remaining compound content (%)” value worked out at 91.3% in series [2] (60min) and 95.6% in series [2] (120min). Also, the share remaining at 10 min, 25 µM in series [1] (setting [4]) amounted to 116%. Moreover, the fraction remaining at 20 min, 25 µM in series [1] (setting [5]) stood at 105%. Further, in series [1] (setting [6]), the fraction remaining at 0.5 h, 25 µM stood at 110%. Besides, the fraction remaining at 1 h, 25 µM in series [1] (setting [7]) is 102%.

In the case of “YGRKKRRQRRRKLSSIESDV [NA-1, YGRKKRRQR RRKLSSIESDV, reference compound]”, the “Relative remaining compound content (%)” value in series [1] (setting [3]) is given as 100.0%; in series [1] (Rat plasma, 25 µM, 10min), 103.7%; in series [1] (Rat plasma, 25 µM, 20min) it was 77.5%; in series [1] (Rat plasma, 25 µM, 30min), 69.5%; in series [1] (Rat plasma, 25 µM, 60min), 54.4%; in series [1] (Rat plasma, 25 µM, 120min), 42.1%. Moreover, the “Relative remaining compound content (%)” value in series [2] (0min (standard 100%)) turned out to be 100.0%; in series [2] (10min), 23.9%; in series [2] (20min) it was 7.6%; in series [2] (30min), 3.4%; in series [2] (60min), 0.9%; in series [2] (120min) it was 0.3%. Also, the fraction remaining at 10 min, 25 µM in series [1] (rat, plasma, Rat plasma, 25 µM, 10min, read-out: Relative remaining compound content (%)) amounted to 94.1%. Also, the share remaining at 20 min, 25 µM in series [1] (rat, plasma, Rat plasma, 25 µM, 20min, read-out: Relative remaining compound content (%)) was 83%. Further, the amount remaining at 0.5 h, 25 µM in series [1] (rat, plasma, Rat plasma, 25 µM, 30min, read-out: Relative remaining compound content (%)) stood at 73.3%. For the same compound, the share remaining at 1 h, 25 µM in series [1] (rat, plasma, Rat plasma, 25 µM, 60min, read-out: Relative remaining compound content (%)) came out at 57%. Further, the share remaining at 2 h, 25 µM in series [1] (rat, plasma, Rat plasma, 25 µM, 120min, read-out: Relative remaining compound content (%)) came out at 28.4%. In addition, the pEC50 at human PSD95-PDZ2 was 7.08.
